Changes are numbered by the printed parent chain. Where two headings read alike, the source gives them in different places.
Experiments:
mutant MGL = target: T1, mutant MGL (Homo sapiens, UniProt Q99685, L169S/L176S); assay: MGL ThermoFluor assay - mutant; type: binding
T1 sequence (Q99685 1-303 L169S/L176S): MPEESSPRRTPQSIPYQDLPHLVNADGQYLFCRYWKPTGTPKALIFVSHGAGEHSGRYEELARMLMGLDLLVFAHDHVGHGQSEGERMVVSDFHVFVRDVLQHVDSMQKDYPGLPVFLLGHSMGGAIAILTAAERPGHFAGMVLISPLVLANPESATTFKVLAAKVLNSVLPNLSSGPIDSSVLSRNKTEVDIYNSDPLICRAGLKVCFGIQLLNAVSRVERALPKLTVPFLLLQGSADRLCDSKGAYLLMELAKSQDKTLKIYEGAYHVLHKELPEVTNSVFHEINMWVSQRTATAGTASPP
Procedure: The ThermoFluor (TF) assay is a 384-well plate-based binding assay that measures thermal stability of proteins^1,2. […] TF dye used in all experiments was 1,8-ANS (Invitrogen: A-47). Final TF assay conditions used for MGL studies were 0.07 mg/ml of mutant MGL, 100 μM ANS, 200 mM NaCl, 0.001% Tween-20 in 50 mM PIPES (pH=7.0).
Screening compound plates contained 100% DMSO compound solutions at a single concentration. […] Columns 12 and 24 were used as DMSO reference and contained no compound. […] Following compound dispension, protein and dye solutions were added to achieve the final assay volume of 3 μL.
Bar-coded assay plates were robotically loaded onto a thermostatically controlled PCR-type thermal block and then heated from 40 to 90° C. degrees at a ramp-rate of 1° C./min for all experiments. Fluorescence was measured by continuous illumination with UV light (Hamamatsu LC6), supplied via fiber optics and filtered through a band-pass filter (380-400 nm; >60D cutoff). Fluorescence emission of the entire 384-well plate was detected by measuring light intensity using a CCD camera (Sensys, Roper Scientific) filtered to detect 500±25 nm, resulting in simultaneous and independent readings of all 384 wells. A single image with 20-sec exposure time was collected at each temperature, and the sum of the pixel intensity in a given area of the assay plate was recorded vs temperature and fit to standard equations to yield the Tm^1. • 1.
For some experiments, quantitative NMR spectroscopy (qNMR) was used to measure concentration of the initial 100% DMSO compound solutions and, using the same fitting method, qKd values were determined

[1] = target: T2, purified wild type MGL (wt-MGLL 6H-11-313) (Homo sapiens, UniProt Q99685)
T2 sequence (Q99685 1-303): T1 sequence (Q99685 1-303 L169S/L176S) with S169L, S176L

MGL = target: T3, MGL (Rattus norvegicus, UniProt Q8R431); assay: 2-AG accumulation assay in rat brain homogenate; type: biochemical; conditions: rat brain homogenate; compound 1 μM; 2-AG accumulation as percent of vehicle; read-out: Rat Brain 2AG % VehCntrl (%) @ 1 μM
T3 construct: one g rat brain was homogenized using a Polytron homogenizer; from tissue; host or cells: rat brain homogenate
T3 sequence (Q8R431 1-303): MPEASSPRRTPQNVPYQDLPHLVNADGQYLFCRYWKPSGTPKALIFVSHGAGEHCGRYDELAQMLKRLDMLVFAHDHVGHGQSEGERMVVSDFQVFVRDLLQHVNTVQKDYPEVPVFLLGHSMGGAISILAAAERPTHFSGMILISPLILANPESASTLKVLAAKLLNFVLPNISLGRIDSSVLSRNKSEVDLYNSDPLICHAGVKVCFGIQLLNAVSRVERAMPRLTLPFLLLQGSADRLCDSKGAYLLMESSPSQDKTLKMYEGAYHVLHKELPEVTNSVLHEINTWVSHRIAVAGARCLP

[2] = ThermoFluor concentration-response, read-out: MGL mutant ThermoFluor Kd
[3] = compound concentration measured by qNMR, read-out: MGL mutant ThermoFluor qKd (using qNMR conc.)
[4] = ThermoFluor, compound concentration measured by qNMR, read-out: MGL mutant ThermoFluor qKd (μM) (using qNMR conc.)
[5] = ThermoFluor, compound concentration measured by qNMR, read-out: MGL mutant ThermoFluor qKd (using qNMR conc.)

SMILES	Kd (mutant MGL; [2])	IC50 [1]	2-AG accumulation, % of vehicle control at 1 µM (MGL)	Kd (mutant MGL; [3])	Kd (mutant MGL; [4])	Kd (mutant MGL; [5])
O=C(c1cscn1)N1CCN(C2CN(C(=O)c3nn(-c4ccc(Cl)cc4Cl)c4c3CCC/C4=C\c3ccc(Cl)cc3)C2)CC1 [Cpd 1023]	0.143 µM	41 nM	262%			
O=C(c1ccc[nH]1)N1CCN(C2CN(C(=O)c3nn(-c4ccc(Cl)cc4Cl)c4c3CSC/C4=C\c3ccc(F)cc3)C2)CC1 [Cpd 1024]		69 nM	281%	0.135 µM		
O=C(c1ccc(F)cc1)c1c[nH]c2cc(C(=O)N3CC(N4CCN(C(=O)c5nccs5)CC4)C3)ccc12 [Cpd 1025]		19 nM	851%	0.066 µM		
Cn1cc(Cc2ccc(F)cc2)c2ccc(C(=O)N3CC(N4CCN(C(=O)c5cscn5)CC4)C3)cc21 [Cpd 1027]		14 nM	785%	0.012 µM		
Cn1cc(Cc2ccc(F)cc2)c2ccc(C(=O)N3CC(N4CCN(C(=O)c5ccc[nH]5)CC4)C3)cc21 [Cpd 1028]		16 nM	647%	0.011 µM		
O=C(c1ccc2c(ccn2-c2cc(F)c(F)c(F)c2)c1)N1CC(N2CCN(C(=O)c3cscn3)CC2)C1 [Cpd 1055]		5 nM	701%		0.02 µM	
O=C(c1cnc2c(ccn2-c2ccc(F)cc2)c1)N1CC(N2CCN(C(=O)c3nccs3)CC2)C1 [Cpd 1056]		6 nM	498%		0.012 µM	
Cc1c(C(=O)N2CC(N3CCN(C(=O)c4cscn4)CC3)C2)sc2ccc(-c3ccccc3)cc12 [Cpd 1058, 1-{1-[(3-Methyl-5-phenyl-1-benzothiophen-2-yl)carbonyl]azetidin-3-yl}-4-(1,3-thiazol-4-ylcarbonyl)piperazine]	0.007 µM	6 nM	590%			
Cc1sc(C(=O)N2CC(N3CCN(C(=O)c4nccs4)CC3)C2)cc1-c1cccc(F)c1 [Cpd 1059]		6 nM	507%		0.066 µM	
Cn1ccc2cc(C(=O)N3CC(N4CCN(C(=O)c5nccs5)CC4)C3)cc(-c3cccc(C(F)(F)F)c3)c21 [Cpd 1060]		6 nM	671%		0.032 µM	
O=C(c1ccc2c(ccn2-c2ccc(C(F)(F)F)nc2)c1)N1CC(N2CCN(C(=O)c3ccc[nH]3)CC2)C1 [Cpd 1062, 5-({3-[4-(1H-Pyrrol-2-ylcarbonyl)piperazin-1-yl]azetidin-1-yl}carbonyl)-1-[6-(trifluoromethyl)pyridin-3-yl]-1H-indole]		7 nM	451%			0.1 µM
O=C(c1nccs1)N1CCN(C2CN(C(=O)c3sc4cc(-c5ccc(C(F)(F)F)cc5)ccc4c3F)C2)CC1 [Cpd 1063]	0.003 µM	7 nM	846%			
Cc1cc(C(=O)N2CC(N3CCN(C(=O)c4nccs4)CC3)C2)sc1-c1cccc(F)c1 [Cpd 1065]		7 nM	531%		0.036 µM	
Cn1ccc2cc(C(=O)N3CC(N4CCN(C(=O)c5nccs5)CC4)C3)cc(-c3cccc(F)c3)c21 [Cpd 1066]		7 nM	609%		0.031 µM	
O=C(c1ccc(-c2cccc(C(F)(F)F)c2)cc1)N1CCN(C2CN(C(=O)c3cscn3)C2)CC1 [Cpd 1067, 1-[1-(1,3-Thiazol-4-ylcarbonyl)azetidin-3-yl]-4-{[3′-(trifluoromethyl)biphenyl-4-yl]carbonyl}piperazine]	0.007 µM	7 nM	408%			
Cc1cn(-c2cccc(OC(F)(F)F)c2)c2ccc(C(=O)N3CC(N4CCN(C(=O)c5nccs5)CC4)C3)cc12 [Cpd 1068]		7 nM	849%		0.002 µM	

SMILES	Kd (mutant MGL; [2])	IC50 [1]	2-AG accumulation, % of vehicle control at 1 µM (MGL)	Kd (mutant MGL; [3])	Kd (mutant MGL; [4])	Kd (mutant MGL; [5])
O=C(c1cscn1)N1CCN(C2CN(C(=O)c3cc4ccn(-c5ccc(F)cc5)c4cc3F)C2)CC1 [Cpd 1069]	0.028 µM	7 nM	696%			
O=C(c1ccc(-c2ccc(C(F)(F)F)s2)cc1)N1CC(N2CCN(C(=O)c3cscn3)CC2)C1 [Cpd 1071, 1-(1,3-Thiazol-4-ylcarbonyl)-4-[1-({4-[5-(trifluoromethyl)thiophen-2-yl]phenyl}carbonyl)azetidin-3-yl]piperazine]	0.025 µM	8 nM	552%			
COc1ccc(-n2ccc3cc(C(=O)N4CC(N5CCN(C(=O)c6nccs6)CC5)C4)ccc32)cn1 [Cpd 1072, 1-(6-Methoxypyridin-3-yl)-5-({3-[4-(1,3-thiazol-2-ylcarbonyl)piperazin-1-yl]azetidin-1-yl}carbonyl)-1H-indole]		8 nM	839%			0.007 µM
Cc1cc(-c2ccccc2)ccc1C(=O)N1CC(N2CCN(C(=O)c3nccs3)CC2)C1 [Cpd 1074, 1-{1-[(3-Methylbiphenyl-4-yl)carbonyl]azetidin-3-yl}-4-(1,3-thiazol-2-ylcarbonyl)piperazine]	0.011 µM	8 nM	303%			
Cc1c(C(=O)N2CC(N3CCN(C(=O)c4nccs4)CC3)C2)[nH]c2ccc(-c3ccc(F)cc3)cc12 [Cpd 1075, 5-(4-Fluorophenyl)-3-methyl-2-({3-[4-(1,3-thiazol-2-ylcarbonyl)piperazin-1-yl]azetidin-1-yl}carbonyl)-1H-indole]		8 nM	833%		0.01 µM	
O=C(c1ccc2nc(-c3ccc(F)c(F)c3)oc2c1)N1CC(N2CCN(C(=O)c3nccs3)CC2)C1 [Cpd 1077]		8 nM	667%		0.02 µM	
O=C(c1ccc2c(c1)CCN2c1ccc(F)cc1)N1CC(N2CCN(C(=O)c3cscn3)CC2)C1 [Cpd 1081]		9 nM	622%	0.019 µM		
O=C(c1ccc(-c2nc(-c3ccc(F)cc3)cs2)cc1)N1CC(N2CCN(C(=O)c3nccs3)CC2)C1 [Cpd 1082]	0.003 µM	9 nM	742%			
O=C(c1cc(-c2ccc(Cl)cc2)n(-c2ccc(Cl)c(Cl)c2)n1)N1CC(N2CCN(C(=O)c3nccs3)CC2)C1 [Cpd 1083]		9 nM	299%			0.065 µM
Cc1cn(-c2ccc(F)cc2)c2ccc(C(=O)N3CCN(C4CN(C(=O)c5nccs5)C4)CC3)cc12 [Cpd 1089, 1-(4-Fluorophenyl)-3-methyl-5-({4-[1-(1,3-thiazol-2-ylcarbonyl)azetidin-3-yl]piperazin-1-yl}carbonyl)-1H-indole]	0.009 µM	10 nM	545%			0.006 µM
COc1ccc(-c2cccc(C(=O)N3CC(N4CCN(C(=O)c5nccs5)CC4)C3)c2)cc1 [Cpd 1091]	1.64 µM	11 nM	450%			
O=C(c1nccs1)N1CCN(C2CN(C(=O)c3sc4ccc(-c5ccc(C(F)(F)F)cc5)cc4c3F)C2)CC1 [Cpd 1092]	0.005 µM	11 nM	838%			
O=C(c1cccc(-c2cccc(C(F)(F)F)c2)c1)N1CC(N2CCN(C(=O)c3nccs3)CC2)C1 [Cpd 1093]	0.24 µM	11 nM	472%			
O=C(c1nccs1)N1CCN(C2CN(C(=O)c3sc4cc(-c5ccccc5)ccc4c3C(F)(F)F)C2)CC1 [Cpd 1095, 1-(1-{[6-Phenyl-3-(trifluoromethyl)-1-benzothiophen-2-yl]carbonyl}azetidin-3-yl)-4-(1,3-thiazol-2-ylcarbonyl)piperazine]	0.011 µM	11 nM	484%			
Cc1sc(C(=O)N2CC(N3CCN(C(=O)c4nccs4)CC3)C2)cc1-c1ccc(F)cc1 [Cpd 1096]		11 nM	449%		0.08 µM	

Source: patent publication US8362000B2, “Azetidinyl diamides as monoacylglycerol lipase inhibitors” (Janssen Pharmaceutica NV, priority 2009, dated 2013)
